Assay results as given in ChEMBL document CHEMBL1909046, “DrugMatrix in vitro pharmacology data”.

Key:
[1] = molecular target: T1, Polyunsaturated fatty acid lipoxygenase ALOX15 (Oryctolagus cuniculus, UniProt P12530); assay: biochemical; format: tissue-based, Reticulocytes;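 further: inhibition of 15-lipoxygenase enzyme activity measured with linoleic acid as the substrate; in other assays of this panel Not Active means under 50% inhibition at 10 µM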
T1 sequence (P12530 whole entry): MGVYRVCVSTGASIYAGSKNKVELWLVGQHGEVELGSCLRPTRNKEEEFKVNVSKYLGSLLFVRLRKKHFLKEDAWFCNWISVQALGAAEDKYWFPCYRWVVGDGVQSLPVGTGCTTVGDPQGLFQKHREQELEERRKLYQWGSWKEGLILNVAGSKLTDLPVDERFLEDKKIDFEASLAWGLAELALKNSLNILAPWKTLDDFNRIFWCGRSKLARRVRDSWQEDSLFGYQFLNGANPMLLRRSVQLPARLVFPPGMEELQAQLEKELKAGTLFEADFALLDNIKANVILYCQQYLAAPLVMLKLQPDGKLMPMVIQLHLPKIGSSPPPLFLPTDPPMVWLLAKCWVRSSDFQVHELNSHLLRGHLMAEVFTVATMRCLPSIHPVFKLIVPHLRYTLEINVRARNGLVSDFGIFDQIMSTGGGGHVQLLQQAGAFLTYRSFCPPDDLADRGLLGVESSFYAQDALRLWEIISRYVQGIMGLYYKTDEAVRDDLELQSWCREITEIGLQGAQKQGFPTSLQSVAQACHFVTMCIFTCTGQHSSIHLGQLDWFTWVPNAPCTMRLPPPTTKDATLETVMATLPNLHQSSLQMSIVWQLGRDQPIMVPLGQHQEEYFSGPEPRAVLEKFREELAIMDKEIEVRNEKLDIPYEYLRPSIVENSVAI

[2] = DRUGMATRIX: Calcium Channel Type L, Dihydropyridine radioligand binding (ligand: [3H] Nitrendipine); format: cell membranes, Rattus norvegicus, Wistar, Cerebral cortex, Membrane; details: Not Active = under 50% inhibition at 10 µM
Mu-type opioid receptor = Mu-type opioid receptor (Homo sapiens, UniProt P35372); assay: DRUGMATRIX: Opiate mu (OP3, MOP) radioligand binding (ligand: [3H] Diprenorphine); format: cell membranes, CHO-K1, Membrane; details: Not Active = under 50% inhibition at 10 µM
Melanocortin receptor 5 = Melanocortin receptor 5 (Homo sapiens, UniProt P33032); format: cell membranes, HEK293, Membrane; further: in other assays of this panel Not Active means under 50% inhibition at 10 µM
[3] = molecular target: T2, Nitric oxide synthase, inducible (Mus musculus, UniProt P29477); set-up: species or system Escherichia coli;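 further: inhibition of iNOS enzyme activity measured with L-arginine as substrate; in other assays of this panel Not Active means under 50% inhibition at 10 µM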
T2 sequence (P29477 whole entry): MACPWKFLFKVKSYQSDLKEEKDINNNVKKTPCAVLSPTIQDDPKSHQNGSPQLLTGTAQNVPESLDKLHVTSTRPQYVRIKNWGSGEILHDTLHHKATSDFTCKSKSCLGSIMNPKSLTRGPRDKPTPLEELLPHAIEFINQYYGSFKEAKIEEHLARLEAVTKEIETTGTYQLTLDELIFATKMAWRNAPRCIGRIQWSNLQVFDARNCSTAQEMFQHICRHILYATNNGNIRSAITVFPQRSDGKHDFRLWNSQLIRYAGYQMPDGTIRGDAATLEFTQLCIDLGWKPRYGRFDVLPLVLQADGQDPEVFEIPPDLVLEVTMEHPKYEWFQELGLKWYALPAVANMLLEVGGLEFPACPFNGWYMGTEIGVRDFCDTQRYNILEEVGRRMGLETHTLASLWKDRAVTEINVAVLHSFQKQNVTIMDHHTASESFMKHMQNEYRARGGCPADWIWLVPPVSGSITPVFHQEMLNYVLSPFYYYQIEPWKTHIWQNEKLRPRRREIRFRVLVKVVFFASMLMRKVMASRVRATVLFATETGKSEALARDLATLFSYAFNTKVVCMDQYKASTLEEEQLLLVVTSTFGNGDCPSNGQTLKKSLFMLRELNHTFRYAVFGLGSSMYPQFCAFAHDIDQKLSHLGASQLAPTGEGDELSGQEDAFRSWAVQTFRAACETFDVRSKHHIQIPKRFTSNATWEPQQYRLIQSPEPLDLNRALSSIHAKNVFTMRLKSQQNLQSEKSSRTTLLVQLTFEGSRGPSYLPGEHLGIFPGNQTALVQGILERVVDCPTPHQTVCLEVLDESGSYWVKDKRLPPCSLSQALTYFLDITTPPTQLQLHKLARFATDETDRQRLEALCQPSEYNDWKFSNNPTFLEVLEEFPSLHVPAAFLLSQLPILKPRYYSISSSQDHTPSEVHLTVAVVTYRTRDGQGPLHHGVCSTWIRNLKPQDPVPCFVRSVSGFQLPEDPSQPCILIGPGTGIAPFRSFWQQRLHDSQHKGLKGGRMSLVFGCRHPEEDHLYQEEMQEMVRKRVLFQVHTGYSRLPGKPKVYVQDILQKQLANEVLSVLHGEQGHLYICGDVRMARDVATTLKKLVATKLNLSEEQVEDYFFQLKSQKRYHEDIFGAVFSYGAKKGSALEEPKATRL

D(1A) dopamine receptor = D(1A) dopamine receptor (Homo sapiens, UniProt P21728); assay: DRUGMATRIX: Dopamine D1 radioligand binding (ligand: [3H] SCH-23390); format: cell membranes, CHO, Membrane; details: Not Active = under 50% inhibition at 10 µM; for Ki: read-out: Ki
[4] = molecular target: C-C chemokine receptor type 5 (Homo sapiens, UniProt P51681); format: cell membranes, HEK293, Membrane; details: hek293; further: in other assays of this panel Not Active means under 50% inhibition at 10 µM
C-C chemokine receptor type 5, sequence (P51681 whole entry): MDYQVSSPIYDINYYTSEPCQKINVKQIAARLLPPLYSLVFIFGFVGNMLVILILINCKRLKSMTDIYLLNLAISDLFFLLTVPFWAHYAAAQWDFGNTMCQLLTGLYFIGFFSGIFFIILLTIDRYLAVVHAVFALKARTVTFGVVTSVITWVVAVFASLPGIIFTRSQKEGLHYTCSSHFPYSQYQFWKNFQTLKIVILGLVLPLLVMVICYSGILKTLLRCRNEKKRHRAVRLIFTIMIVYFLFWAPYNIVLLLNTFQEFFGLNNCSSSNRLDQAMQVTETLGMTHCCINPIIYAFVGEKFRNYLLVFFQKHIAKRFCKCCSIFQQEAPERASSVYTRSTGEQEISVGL

D(1A) dopamine receptor, sequence (P21728 whole entry): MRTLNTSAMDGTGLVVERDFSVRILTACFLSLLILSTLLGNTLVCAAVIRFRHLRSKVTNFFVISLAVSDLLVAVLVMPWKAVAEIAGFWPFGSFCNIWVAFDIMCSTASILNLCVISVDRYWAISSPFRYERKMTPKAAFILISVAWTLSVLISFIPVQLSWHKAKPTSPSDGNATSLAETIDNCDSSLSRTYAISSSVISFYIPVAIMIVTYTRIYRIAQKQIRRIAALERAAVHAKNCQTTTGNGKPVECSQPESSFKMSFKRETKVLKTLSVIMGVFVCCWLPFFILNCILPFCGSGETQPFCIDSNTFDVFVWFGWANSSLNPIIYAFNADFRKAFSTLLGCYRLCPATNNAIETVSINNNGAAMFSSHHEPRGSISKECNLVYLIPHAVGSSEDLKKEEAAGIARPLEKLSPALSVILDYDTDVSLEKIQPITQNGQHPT
Mu-type opioid receptor, sequence (P35372 whole entry): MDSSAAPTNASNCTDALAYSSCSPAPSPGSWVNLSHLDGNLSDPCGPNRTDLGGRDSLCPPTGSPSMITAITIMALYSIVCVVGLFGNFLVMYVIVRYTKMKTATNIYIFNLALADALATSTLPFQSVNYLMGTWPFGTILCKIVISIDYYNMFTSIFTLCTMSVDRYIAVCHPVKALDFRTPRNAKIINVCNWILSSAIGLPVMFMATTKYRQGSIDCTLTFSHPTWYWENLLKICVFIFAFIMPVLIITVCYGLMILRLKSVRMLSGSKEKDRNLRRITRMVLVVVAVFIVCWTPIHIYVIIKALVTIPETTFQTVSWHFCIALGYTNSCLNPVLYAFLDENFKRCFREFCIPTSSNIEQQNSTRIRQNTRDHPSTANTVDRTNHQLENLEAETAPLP
Melanocortin receptor 5, sequence (P33032 whole entry): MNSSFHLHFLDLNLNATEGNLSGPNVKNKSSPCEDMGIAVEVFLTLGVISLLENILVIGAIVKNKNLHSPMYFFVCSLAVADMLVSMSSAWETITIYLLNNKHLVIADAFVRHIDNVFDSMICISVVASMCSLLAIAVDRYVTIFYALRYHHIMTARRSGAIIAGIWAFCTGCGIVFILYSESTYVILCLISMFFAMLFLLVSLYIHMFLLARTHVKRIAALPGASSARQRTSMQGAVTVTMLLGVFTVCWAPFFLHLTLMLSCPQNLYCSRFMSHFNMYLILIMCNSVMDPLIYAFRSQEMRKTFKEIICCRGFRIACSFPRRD

| Structure (SMILES) | IC50 ([1]; reticulocytes) | IC50 [2] | Ki [2] | IC50 (Mu-type opioid receptor; cho-k1) | IC50 (Melanocortin receptor 5; hek293) | IC50 [3] | IC50 (D(1A) dopamine receptor; cho) | IC50 [4] | Ki (Mu-type opioid receptor) [nM] | IC50 (Mu-type opioid receptor; read-out: IC50) [µM] | IC50 (Melanocortin receptor 5; read-out: IC50) [µM] | Ki (Melanocortin receptor 5; read-out: Ki) [µM] | IC50 (D(1A) dopamine receptor; read-out: IC50) [nM] | Ki (D(1A) dopamine receptor) [nM] | IC50 ([1]; read-out: IC50) [µM] |
| --- | --- | --- | --- | --- | --- | --- | --- | --- | --- | --- | --- | --- | --- | --- | --- |
| Nc1nc(F)nc2c1ncn2[C@@H]1O[C@H](CO)[C@@H](O)[C@@H]1O [FLUDARABINE] | Not Active | Not Active | Not Active | Not Active | Not Active | Not Active | Not Active | Not Active | – | – | – | – | – | – | – |
| CC[C@H]1OC(=O)[C@H](C)[C@@H](O[C@H]2C[C@@](C)(OC)[C@@H](O)[C@H](C)O2)[C@H](C)[C@@H](O[C@@H]2O[C@H](C)C[C@H](N(C)C)[C@H]2O)[C@](C)(O)C[C@@H](C)C(=O)[C@H](C)[C@@H](O)[C@]1(C)O [ERYTHROMYCIN] | Not Active | Not Active | Not Active | Not Active | Not Active | Not Active | Not Active | Not Active | – | – | – | – | – | – | – |
| CCC1(c2ccccc2)C(=O)NC(=O)NC1=O [PHENOBARBITAL] | Not Active | Not Active | Not Active | Not Active | Not Active | Not Active | Not Active | Not Active | – | – | – | – | – | – | – |
| CCN1CCN(C(=O)N[C@@H](C(=O)N[C@@H]2C(=O)N3[C@@H]2SC(C)(C)[C@@H]3C(=O)O)c2ccccc2)C(=O)C1=O [PIPERACILLIN] | Not Active | Not Active | Not Active | Not Active | Not Active | Not Active | Not Active | Not Active | – | – | – | – | – | – | – |
| O=C(O)c1ccccc1 [BENZOIC ACID] | Not Active | Not Active | Not Active | Not Active | Not Active | Not Active | Not Active | Not Active | – | – | – | – | – | – | – |
| OC[C@H]1O[C@@H]2O[C@H]3[C@H](O)[C@@H](O)[C@@H](O[C@H]4[C@H](O)[C@@H](O)[C@@H](O[C@H]5[C@H](O)[C@@H](O)[C@@H](O[C@H]6[C@H](O)[C@@H](O)[C@@H](O[C@H]7[C@H](O)[C@@H](O)[C@@H](O[C@H]1[C@H](O)[C@H]2O)O[C@@H]7CO)O[C@@H]6CO)O[C@@H]5CO)O[C@@H]4CO)O[C@@H]3CO [ALFADEX] | Not Active | Not Active | Not Active | Not Active | Not Active | Not Active | Not Active | Not Active | – | – | – | – | – | – | – |
| c1ccc2sc(SSc3nc4ccccc4s3)nc2c1 [BENZOTHIAZYL DISULFIDE] | Not Active | Not Active | Not Active | – | – | Not Active | – | Not Active | 1260 | 3.11 | 3.9 | 3.7 | 1190 | 595 | – |
| CNC[C@H](O)c1ccc(O)c(O)c1 [EPINEPHRINE] | – | Not Active | Not Active | Not Active | Not Active | Not Active | Not Active | Not Active | – | – | – | – | – | – | 3.28 |
| C[N+](C)(C)CCOP(=O)([O-])OC[C@H](O)CO | Not Active | Not Active | Not Active | Not Active | Not Active | Not Active | Not Active | Not Active | – | – | – | – | – | – | – |
| COc1ccc(C[C@H](N)C(=O)N[C@H]2[C@@H](O)[C@H](n3cnc4c(N(C)C)ncnc43)O[C@@H]2CO)cc1 [PUROMYCIN] | Not Active | Not Active | Not Active | Not Active | Not Active | Not Active | Not Active | Not Active | – | – | – | – | – | – | – |
| CC(CN1c2ccccc2Sc2ccccc21)N(C)C (stereo not given) [PROMETHAZINE] | Not Active | Not Active | Not Active | Not Active | Not Active | Not Active | – | Not Active | – | – | – | – | 2740 | 1370 | – |
| NCC(CC(=O)O)c1ccc(Cl)cc1 (stereo not given) [BACLOFEN] | Not Active | Not Active | Not Active | Not Active | Not Active | Not Active | Not Active | Not Active | – | – | – | – | – | – | – |
